From patent US20170197979A1, “BENZOTHIADIAZOLAMINES” (BAYER PHARMA AKTIENGESELLSCHAFT, priority 2014, published 2017)
Where two headings read alike, the source gives them in different places.

Target: T1, human full-length MKNK1 (Homo sapiens, UniProt Q9BUB5, T385D)
T1 construct: GST (N); purchased Carna Biosciences 02-145; host or cells: insect cells (baculovirus expression system)
Experiment: MKNK1 kinase high ATP assay (TR-FRET)
Format: biochemical
Protocol: MKNK1 Kinase High ATP Assay
MKNK1-inhibitory activity at high ATP of compounds of the present invention after their preincubation with MKNK1 was quantified employing the TR-FRET-based MKNK1 high ATP assay as described in the following paragraphs.
A recombinant fusion protein of Glutathione-S-Transferase (GST, N-terminally) and human full-length MKNK1 (amino acids 1-424 and T344D of accession number BAA 19885.1), expressed in insect cells using baculovirus expression system and purified via glutathione sepharose affinity chromatography, was purchased from Carna Biosciences (product no 02-145) and used as enzyme. As substrate for the kinase reaction the biotinylated peptide biotin-Ahx-IKKRKLTRRKSLKG (C-terminus in amide form) was used, which can be purchased e.g. from the company Biosyntan (Berlin-Buch, Germany).
For the assay 50 nL of a 100 fold concentrated solution of the test compound in DMSO was pipetted into a black low volume 384 well microtiter plate (Greiner Bio-One, Frickenhausen, Germany), 2 μL of a solution of MKNK1 in aqueous assay buffer [50 mM HEPES pH 7.5, 5 mM MgCl2, 1.0 mM dithiothreitol, 0.005% (v/v) Nonidet-P40 (Sigma)] was added and the mixture was incubated for 15 min at 22° C. to allow pre-binding of the test compounds to the enzyme before the start of the kinase reaction. Then the kinase reaction was started by the addition of 3 μL of a solution of adenosine-tri-phosphate (ATP, 3.3 mM=>final conc. in the 5 μL assay volume is 2 mM) and substrate (0.1 μM=>final conc. in the 5 μL assay volume is 0.06 μM) in assay buffer and the resulting mixture was incubated for a reaction time of 30 min at 22° C. The concentration of MKNK1 was adjusted depending of the activity of the enzyme lot and was chosen appropriate to have the assay in the linear range, typical concentrations were in the range of 0.003 μg/mL. The reaction was stopped by the addition of 5 μL of a solution of TR-FRET detection reagents (5 nM streptavidine-XL665 [Cisbio Bioassays, Codolet, France] and 1 nM anti-ribosomal protein S6 (pSer236)-antibody from Invitrogen [#44921G] and 1 nM LANCE EU-W1024 labeled ProteinG [Perkin-Elmer, product no. AD0071]) in an aqueous EDTA-solution (100 mM EDTA, 0.1% (w/v) bovine serum albumin in 50 mM HEPES pH 7.5).
The resulting mixture was incubated for 1 h at 22° C. to allow the formation of complex between the phosphorylated biotinylated peptide and the detection reagents. Subsequently the amount of phosphorylated substrate was evaluated by measurement of the resonance energy transfer from the Eu-chelate to the streptavidine-XL. Therefore, the fluorescence emissions at 620 nm and 665 nm after excitation at 350 nm were measured in a TR-FRET reader, e.g. a Rubystar (BMG Labtechnologies, Offenburg, Germany) or a Viewlux (Perkin-Elmer). The ratio of the emissions at 665 nm and at […] was taken as the measure for the amount of phosphorylated substrate. The data were normalised (enzyme reaction without inhibitor=0% inhibition, all other assay components but no enzyme=100% inhibition).

[1] = TR-FRET, high ATP (2 mM final), 15 min preincubation with enzyme, GST-MKNK1 (T344D), read-out: MKNK1 IC50

T1 sequence (Q9BUB5 1-424 isoform Q9BUB5-2 T344D): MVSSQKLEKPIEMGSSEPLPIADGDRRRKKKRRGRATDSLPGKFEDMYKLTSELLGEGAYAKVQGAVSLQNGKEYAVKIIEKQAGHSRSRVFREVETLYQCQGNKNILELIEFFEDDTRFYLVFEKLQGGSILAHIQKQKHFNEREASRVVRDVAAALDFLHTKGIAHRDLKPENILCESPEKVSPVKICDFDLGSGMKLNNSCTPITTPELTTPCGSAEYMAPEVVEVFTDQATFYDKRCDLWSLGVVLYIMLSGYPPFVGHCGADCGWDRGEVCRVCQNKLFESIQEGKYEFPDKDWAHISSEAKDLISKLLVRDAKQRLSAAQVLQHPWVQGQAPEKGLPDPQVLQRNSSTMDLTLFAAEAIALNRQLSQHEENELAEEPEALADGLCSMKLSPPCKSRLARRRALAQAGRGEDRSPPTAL

SMILES | IC50 [nM] | IC50 [1] [nM]
O=C1CCN(C(=O)[C@H]2CCc3c(sc4ncnc(Nc5ccc6nnsc6c5)c34)C2)CC1 [Example 16, 1-{[(7S)-4-(1,2,3-Benzothiadiazol-6-ylamino)-5,6,7,8-tetrahydro[1]benzothieno[2,3-d]pyrimidin-7-yl]carbonyl}piperidin-4-one] | 15 | –
COc1cc2nnsc2cc1Nc1ncnc2sc3c(c12)CC[C@H](C(=O)N1CCN(C)CC1)C3 [Example 50, {(7S)-4-[(5-Methoxy-1,2,3-benzothiadiazol-6-yl)amino]-5,6,7,8-tetrahydro[1]benzothieno[2,3-d]pyrimidin-7-yl}(4-methylpiperazin-1-yl)methanone] | – | 11
COc1cc2nnsc2cc1Nc1ncnc2sc3c(c12)CC[C@H](C(=O)NCCC(F)(F)F)C3 [Example 56, (7S)-4-[(5-Methoxy-1,2,3-benzothiadiazol-6-yl)amino]-N-(3,3,3-trifluoropropyl)-5,6,7,8-tetrahydro[1]benzothieno[2,3-d]pyrimidine-7-carboxamide] | – | 7.3
CN(CC(F)F)C(=O)[C@H]1CCc2c(sc3ncnc(Nc4ccc5nnsc5c4)c23)C1 [Example 26, (7S)-4-(1,2,3-Benzothiadiazol-6-ylamino)-N-(2,2-difluoroethyl)-N-methyl-5,6,7,8-tetrahydro[1]benzothieno[2,3-d]pyrimidine-7-carboxamide] | – | 11
O=C([C@H]1CCc2c(sc3ncnc(Nc4ccc5nnsc5c4)c23)C1)N1CC(O)C1 [Example 32, [(7S)-4-(1,2,3-Benzothiadiazol-6-ylamino)-5,6,7,8-tetrahydro[1]benzothieno[2,3-d]pyrimidin-7-yl](3-hydroxyazetidin-1-yl)methanone] | – | 33
COc1cc2nnsc2cc1Nc1ncnc2sc3c(c12)CC[C@H](C(=O)N1CCC(N(C)C)CC1)C3 [Example 47, [4-(Dimethylamino)piperidin-1-yl]{(7S)-4-[(5-methoxy-1,2,3-benzothiadiazol-6-yl)amino]-5,6,7,8-tetrahydro[1]benzothieno[2,3-d]pyrimidin-7-yl}methanone] | – | 7.6
COc1cc2nnsc2cc1Nc1ncnc2sc3c(c12)CC[C@H](C(=O)N1C[C@H](O)[C@@H](O)C1)C3 [Example 57, [(3S,4S)-3,4-Dihydroxypyrrolidin-1-yl]{(7S)-4-[(5-methoxy-1,2,3-benzothiadiazol-6-yl)amino]-5,6,7,8-tetrahydro[1]benzothieno[2,3-d]pyrimidin-7-yl}methanone] | – | 1.6
COc1cc2nnsc2cc1Nc1ncnc2sc3c(c12)CC[C@H](C(=O)N1C[C@@H]2C[C@H]1CN2C)C3 [Example 53, {(7S)-4-[(5-Methoxy-1,2,3-benzothiadiazol-6-yl)amino]-5,6,7,8-tetrahydro[1]benzothieno[2,3-d]pyrimidin-7-yl}[(1S,4S)-5-methyl-2,5-diazabicyclo[2.2.1]hept-2-yl]methanone] | – | 3.8
O=C([C@H]1CCc2c(sc3ncnc(Nc4ccc5nnsc5c4)c23)C1)N1CCC(F)(F)C1 [Example 17, [(7S)-4-(1,2,3-Benzothiadiazol-6-ylamino)-5,6,7,8-tetrahydro[1]benzothieno[2,3-d]pyrimidin-7-yl](3,3-difluoropyrrolidin-1-yl)methanone] | – | 11
COc1cc2nnsc2cc1Nc1ncnc2sc3c(c12)CC[C@H](C(=O)N(C)CC(=O)N(C)C)C3 [Example 42, (7S)—N-[2-(Dimethylamino)-2-oxoethyl]-4-[(5-methoxy-1,2,3-benzothiadiazol-6-yl)amino]-N-methyl-5,6,7,8-tetrahydro[1]benzothieno[2,3-d]pyrimidine-7-carboxamide] | – | 0.8
COc1cc2nnsc2cc1Nc1ncnc2sc3c(c12)CC[C@H](C(=O)N1CC[C@H](N(C)C)C1)C3 [Example 51, [(3S)-3-(Dimethylamino)pyrrolidin-1-yl]{(7S)-4-[(5-methoxy-1,2,3-benzothiadiazol-6-yl)amino]-5,6,7,8-tetrahydro[1]benzothieno[2,3-d]pyrimidin-7-yl}methanone] | – | 3.3
C[C@@H]1CN(C(=O)[C@H]2CCc3c(sc4ncnc(Nc5ccc6nnsc6c5)c34)C2)C[C@H](C)O1 [Example 3, [(7S)-4-(1,2,3-Benzothiadiazol-6-ylamino)-5,6,7,8-tetrahydro[1]benzothieno[2,3-d]pyrimidin-7-yl][(2R,6S)-2,6-dimethylmorpholin-4-yl]methanone] | – | 13
COc1cc2nnsc2cc1Nc1ncnc2sc3c(c12)CC[C@H](C(=O)N1CC(N(C)C)C1)C3 [Example 41, [3-(Dimethylamino)azetidin-1-yl]{(7S)-4-[(5-methoxy-1,2,3-benzothiadiazol-6-yl)amino]-5,6,7,8-tetrahydro[1]benzothieno[2,3-d]pyrimidin-7-yl}methanone] | – | 0.6
COc1cc2nnsc2cc1Nc1ncnc2sc3c(c12)CC[C@H](C(=O)N(C)CC(C)(C)O)C3 [Example 36, (7S)—N-(2-Hydroxy-2-methylpropyl)-4-[(5-methoxy-1,2,3-benzothiadiazol-6-yl)amino]-N-methyl-5,6,7,8-tetrahydro[1]benzothieno[2,3-d]pyrimidine-7-carboxamide] | – | 0.8
O=C([C@H]1CCc2c(sc3ncnc(Nc4ccc5nnsc5c4)c23)C1)N1C[C@@H]2C[C@H]1CO2 [Example 18, [(7S)-4-(1,2,3-Benzothiadiazol-6-ylamino)-5,6,7,8-tetrahydro[1]benzothieno[2,3-d]pyrimidin-7-yl][(1S,4S)-2-oxa-5-azabicyclo[2.2.1]hept-5-yl]methanone] | – | 14
CCN(CCN(C)C)C(=O)[C@H]1CCc2c(sc3ncnc(Nc4cc5snnc5cc4OC)c23)C1 [Example 55, (7S)—N-[2-(Dimethylamino)ethyl]-N-ethyl-4-[(5-methoxy-1,2,3-benzothiadiazol-6-yl)amino]-5,6,7,8-tetrahydro[1]benzothieno[2,3-d]pyrimidine-7-carboxamide] | – | 8.9
O=C([C@H]1CCc2c(sc3ncnc(Nc4ccc5nnsc5c4)c23)C1)N1CCOCC1 [Example 6, [(7S)-4-(1,2,3-Benzothiadiazol-6-ylamino)-5,6,7,8-tetrahydro[1]benzothieno[2,3-d]pyrimidin-7-yl](morpholin-4-yl)methanone] | – | 18
COc1cc2nnsc2cc1Nc1ncnc2sc3c(c12)CC[C@H](C(=O)N(C)C)C3 [Example 35, (7S)-4-[(5-Methoxy-1,2,3-benzothiadiazol-6-yl)amino]-N,N-dimethyl-5,6,7,8-tetrahydro[1]benzothieno[2,3-d]pyrimidine-7-carboxamide] | – | 1.3
CN(C)C1CCN(C(=O)[C@H]2CCc3c(sc4ncnc(Nc5ccc6nnsc6c5)c34)C2)CC1 [Example 15, [(7S)-4-(1,2,3-Benzothiadiazol-6-ylamino)-5,6,7,8-tetrahydro[1]benzothieno[2,3-d]pyrimidin-7-yl][4-(dimethylamino)piperidin-1-yl]methanone] | – | 10
CN(C(=O)[C@H]1CCc2c(sc3ncnc(Nc4ccc5nnsc5c4)c23)C1)S(C)(=O)=O [Example 11, (7S)-4-(1,2,3-Benzothiadiazol-6-ylamino)-N-methyl-N-(methylsulfonyl)-5,6,7,8-tetrahydro[1]benzothieno[2,3-d]pyrimidine-7-carboxamide] | – | 12
COc1cc2nnsc2cc1Nc1ncnc2sc3c(c12)CC[C@H](C(=O)N1CC(C)(O)C1)C3 [Example 45, (3-Hydroxy-3-methylazetidin-1-yl){(7S)-4-[(5-methoxy-1,2,3-benzothiadiazol-6-yl)amino]-5,6,7,8-tetrahydro[1]benzothieno[2,3-d]pyrimidin-7-yl}methanone] | – | 1.5
C[C@@H]1COC[C@H](C)N1C(=O)[C@H]1CCc2c(sc3ncnc(Nc4ccc5nnsc5c4)c23)C1 [Example 7, [(7S)-4-(1,2,3-Benzothiadiazol-6-ylamino)-5,6,7,8-tetrahydro[1]benzothieno[2,3-d]pyrimidin-7-yl][(3R,5S)-3,5-dimethylmorpholin-4-yl]methanone] | – | 5.8
